The values that follow are results of earlier work, collected in US20050008712A1, “Compositions incorporating high-caffeine green tea extract and related methods for promoting healthy body weight” (priority 2003, published 2005).

Structures are written as SMILES.

For the series the following is noted: rats.

On to `O=C(O[C@@H]1Cc2c(O)cc(O)cc2O[C@@H]1c1cc(O)c(O)c(O)c1)c1cc(O)c(O)c(O)c1` [EGCG, (−)-epigallo-catechin-3-gallate], for which the “loss of body weight” value (after daily injections for a week) is 20%. Also, under “injected”, the blood cholesterol entry is “significantly reduces”, the blood triglycerides result is given as “significantly reduces”, the body weight result is recorded as “significantly reduces” and the food intake entry is on record as “significantly reduces”.
